The values below come from patent US20100297073A1, “HETEROCYCLIC ANTIVIRAL COMPOUNDS” (priority 2009, published 2010).

For orientation: melting point means the temperature, or range, at which the solid turns liquid. For orientation: IC50 means the concentration that inhibits the measured activity by half. A higher IC50 goes with lower potency.

Each structure is given as a SMILES string.

Data set [1] addresses T1, HCV polymerase (NS5B570n-Con1) (Hepatitis C virus genotype 1b, UniProt Q9WMX2).
T1 construct: contains a 21 amino acid deletion at the C-terminus relative to the full-length HCV polymerase; 6-histidine (N); made in house; host or cells: E. coli BL21(DE) pLysS, plasmid pET17b
Nature of the data set: biochemical. Also on record: species or system HCV Con1 strain. Here is the method:
HCV NS5B RNA Polymerase Activity
The enzymatic activity of HCV polymerase (NS5B570n-Con1) was measured as the incorporation of radiolabeled nucleotide monophosphates into acid insoluble RNA products. Unincorporated radiolabeled substrate was removed by filtration and scintillant was added to the washed and dried filter plate containing radiolabeled RNA product. The amount of RNA product generated by NS5B570-Con1 at the end of the reaction was directly proportional to the amount of light emitted by the scintillant.
The N-terminal 6-histidine tagged HCV polymerase, derived from HCV Con1 strain, genotype 1b (NS5B570n-Con1) contains a 21 amino acid deletion at the C-terminus relative to the full-length HCV polymerase and was purified from E. coli strain BL21(DE) pLysS. The construct, containing the coding sequence of HCV NS5B Con1 (GenBank accession number AJ242654) was inserted into the plasmid construct pET17b, downstream of a T7 promoter expression cassette and transformed into E. coli. A single colony was grown overnight as a starter culture and later used inoculate 10 L of LB media supplemented with 100 μg/mL ampicillin at 37° C. Protein expression was induced by the addition of 0.25 mM isopropyl-β-D-thiogalactopyranoside (IPTG) when optical density at […] of the culture was between 0.6 and 0.8 and cells were harvested after 16 to 18 h at 30° C. NS5B570n-Con1 was purified to homogeneity using a three-step protocol including subsequent column chromatography on Ni-NTA, SP-Sepharose HP and Superdex 75 resins.
Data was analyzed in Excel® (Microsoft®) and ActivityBase® (idbs®). The reaction in the absence of enzyme was used to determine the background signal, which was subtracted from the enzymatic reactions. […] All data was expressed as a percentage of the positive control.
the data where “Y” corresponds to the relative enzyme activity (in %), “% Min” is the residual relative activity at saturating compound concentration, “% Max” is the relative maximum enzymatic activity, “X” corresponds to the compound concentration, and “S” is the Hill coefficient (or slope).

Another data set is described as follows: in vitro. As to conditions: human.
The test system of data set [2] is genotype 1b HCV replicon in Huh7 cell line 2209-23. Kind of data set: HCV replicon assay (Renilla luciferase reporter). Type of data set: cell-based. As to conditions: Hepatitis C virus, Huh-7, 72 h; 2209-23 cells, three days incubation, luciferase readout. (In general: A replicon is a self-replicating genome or part of one, used to study replication in cells.)
The test system of the next data set is HCV. As to conditions: cited from earlier work.

Consider `COc1ccc(-c2cc(-c3cc4ccc(NS(C)(=O)=O)cc4c(=O)o3)c(OC)c(C(C)(C)C)c2)c(=O)[nH]1`, for which the melting point is 231 to 233 °C.

Regarding `COc1c(C2Cc3ccc(NS(C)(=O)=O)cc3C(=O)O2)cc(-c2ccc[nH]c2=O)cc1C(C)(C)C` (centres unmarked) [Compound I-9, N-{3-[3-tert-Butyl-2-methoxy-5-(2-oxo-1,2-dihydro-pyridin-3-yl)-phenyl]-1-oxo-isochroman-7-yl}-methanesulfonamide], in data set [1], the IC50 is 6 nM.

As for `CC(C)(C)c1cc(-c2cc3ccc(NS(C)(=O)=O)cc3c(=O)o2)cc(-c2ccc[nH]c2=O)c1` [Compound I-5, N-{3-[3-tert-Butyl-5-(2-oxo-1,2-dihydro-pyridin-3-yl)-phenyl]-1-oxo-1H-isochromen-7-yl}-methanesulfonamide], the melting point is > 300 °C. Also, the IC50 in data set [1] amounted to 9 nM.

As to `COc1c(-c2cc3ccc(NS(C)(=O)=O)cc3c(=O)o2)cc(-c2c[nH]c(=O)[nH]c2=O)cc1C(C)(C)C` [Compound I-14, N-{3-[3-tert-Butyl-5-(2,4-dioxo-1,2,3,4-tetrahydro-pyrimidin-5-yl)-2-methoxy-phenyl]-1-oxo-1H-isochromen-7-yl}-methanesulfonamide], the melting point was > 300 °C. In data set [1], this compound displayed an IC50 of 1 nM.

`COc1c(-c2cc3ccc(NS(C)(=O)=O)cc3c(=O)o2)cc(-c2cc(F)c[nH]c2=O)cc1C(C)(C)C` [Compound I-6, N-{3-[3-tert-Butyl-5-(5-fluoro-2-oxo-1,2-dihydro-pyridin-3-yl)-2-methoxy-phenyl]-1-oxo-1H-isochromen-7-yl}-methanesulfonamide] yielded a melting point of 295 to 297 °C. The compound further came in with an IC50 in data set [1] of 3 nM.

Regarding `COc1c(-c2cc3ccccc3c(=O)o2)cc(-c2ccc[nH]c2=O)cc1C(C)(C)C` [Compound I-7, 3-[3-tert-Butyl-4-methoxy-5-(1-oxo-1H-isochromen-3-yl)-phenyl]-1H-pyridin-2-one], the melting point lay within 253 to 255 °C. In data set [1], this compound gave an IC50 of 2 nM.

On to `COc1c(-c2cc3ccc(NS(C)(=O)=O)cc3c(=O)o2)cc(-c2cc(F)c[nH]c2=O)cc1C1(C(F)F)CC1` [Compound I-15], for which, in data set [1], the IC50 was 0.2 nM.

The compound `COc1c(-c2cc3ccccc3c(=O)[nH]2)cc(-c2ccc[nH]c2=O)cc1C(C)(C)C` had a melting point of 138 to 140 °C.

The compound `COc1c(C2CCc3cc(NS(C)(=O)=O)ccc3O2)cc(-c2ccc[nH]c2=O)cc1C(C)(C)C` (centres unmarked) [Compound I-3, N-{2-[3-tert-Butyl-2-methoxy-5-(2-oxo-1,2-dihydro-pyridin-3-yl)-phenyl]-chroman-6-yl}-methanesulfonamide] returned an IC50 in data set [1] of 1 nM.

For `COc1c(-c2cc(=O)c3cc(NS(C)(=O)=O)ccc3o2)cc(-c2ccc[nH]c2=O)cc1C(C)(C)C` [Compound I-1, N-{2-[3-tert-Butyl-2-methoxy-5-(2-oxo-1,2-dihydro-pyridin-3-yl)-phenyl]-4-oxo-4H-chromen-6-yl}-methanesulfonamide], the melting point is > 300 °C. This compound came in with an IC50 in data set [1] of 3 nM.

`COc1c(-c2cc3ccc(NS(C)(=O)=O)cc3c(=O)[nH]2)cc(-c2ccc[nH]c2=O)cc1C(C)(C)C` [Compound I-11, N-{3-[3-tert-Butyl-2-methoxy-5-(2-oxo-1,2-dihydro-pyridin-3-yl)-phenyl]-1-oxo-1,2-dihydro-isoquinolin-7-yl}-methanesulfonamide] returned a melting point of 252 to 254 °C. In addition, in data set [1], the midpoint of inhibition, the IC50, lay at 4 nM. Also, the CC50 in “in vitro” was 42600 nM. Further, it took 1 nM to reach half-maximal inhibition in data set [2] (IC50).

`COc1c(C2=CCc3cc(NS(C)(=O)=O)ccc3O2)cc(-c2ccc[nH]c2=O)cc1C(C)(C)C` [Compound I-2, N-{2-[3-tert-Butyl-2-methoxy-5-(2-oxo-1,2-dihydro-pyridin-3-yl)-phenyl]-4H-chromen-6-yl}-methanesulfonamide] registered an IC50 in data set [1] of 14 nM.

With `NC(=O)c1ncn([C@@H]2O[C@H](CO)[C@@H](O)[C@H]2O)n1` [Ribavirin, 1-((2R,3R,4S,5R)-3,4-Dihydroxy-5-hydroxymethyl-tetrahydro-furan-2-yl)-1H-[1,2,4]triazole-3-carboxylic acid amide], the “effect on serum levels of HCV-RNA” value in the data set on HCV (monotherapy / sole treatment) is “does not lower serum levels of HCV-RNA”. Further, the “patients with serum amino transferase levels reduced to normal” value with HCV (monotherapy) was 40%.

`COc1c(-c2nc3ccc(NS(C)(=O)=O)cc3c(=O)[nH]2)cc(-c2ccc[nH]c2=O)cc1C(C)(C)C` [Compound I-13, N-{2-[3-tert-Butyl-2-methoxy-5-(2-oxo-1,2-dihydro-pyridin-3-yl)-phenyl]-4-oxo-3,4-dihydro-quinazolin-6-yl}-methanesulfonamide] displayed a melting point of 228 to 230 °C. In data set [1], this compound had an IC50 of 9 nM.

With `COc1c(C2Cc3ccc(NS(C)(=O)=O)cc3CO2)cc(-c2ccc[nH]c2=O)cc1C(C)(C)C` (centres unmarked) [Compound I-10, N-{3-[3-tert-Butyl-2-methoxy-5-(2-oxo-1,2-dihydro-pyridin-3-yl)-phenyl]-isochroman-7-yl}-methanesulfonamide], the melting point lay in the range of 170 to 175 °C. Besides, the IC50 in data set [1] turned out to be 1 nM.
